According to patent US20170290878A1, “METHODS OF TREATING CANCER WITH TUBULYSIN CONJUGATES” (Endocyte, Inc., priority 2014, published 2017):
Where a name gives a salt, the structure may show the parent alone.

What was measured:
LU2505 tumors = test: Antitumor activity in Huprime NSCLC PDX tumor model LU2505; assay type: in vivo, mice
Protocol: (§1) These studies were performed at Crown Bioscience (Beijing) Inc., Ground Floor, Light Muller Building, Changping Sector of Zhongguancun Scientific Park, No. 21 Huoju Road, Changping District, Beijing, P.R. China.

LU1147 tumors = test: Antitumor activity in Huprime NSCLC PDX tumor model LU1147; assay type: in vivo, mice
Protocol: as §1

KB-PR10 tumors = test: Antitumor activity on paclitaxel resistant KB-PR10 tumors in nu/nu mice; assay type: in vivo; details: three times a week for two weeks
Protocol: Four to six week-old female nu/nu mice (Harlan Sprague Dawley, Inc., Indianapolis, Ind.) were maintained on a standard 12 h light-dark cycle and fed ad libitum with folate-deficient chow (Harlan diet #TD00434, Harlan Teklad, Madison, Wis.) for the duration of the experiment. FR-positive paclitaxel resistant KB-PR10 cells were grown continuously as a monolayer, using folate-free RPMI medium (FFRPMI) containing 5% heat-inactivated fetal calf serum (HIFCS) at 37° C. in a 5% CO2/95% air-humidified atmosphere with no antibiotics. KB-PR10 cells (1×10^6 per nu/nu mouse) in 100 μL were injected in the subcutis of the dorsal medial area. […] Mice were treated with 20 mg/kg Paclitaxel, 2 μmol/kg EC145 (See WO2004/069159 for a description of EC145) or 1 μmol/kg Compound I on a three times a week for 2 weeks schedule when the tumors were approximately 100-145 mm^3, 101-129 mm^3 and 100-140 mm^3 in volume, respectively. The mice in the control groups received no treatment. […] All in vivo studies were performed in accordance with the American Accreditation Association of Laboratory Animal Care guidelines.

large KB tumors = test: Antitumor activity in large KB tumor model; assay type: in vivo, mice; details: EC1456 2 μmol/kg, three times a week for two weeks
Protocol: Female Balb/c nu/nu mice were fed ad libitum with folate-deficient chow (Harlan diet #TD01013) for the duration of the experiment. KB tumor cells were inoculated subcutaneously at the right flank of each mouse.
Growth of each s.c. tumor was followed by measuring the tumor two times per week. Tumors were measured in two perpendicular directions using Vernier calipers, and their volumes were calculated as 0.5×L×W^2, where L=measurement of longest axis in mm and W=measurement of axis perpendicular to L in mm.

ST040 Endometrial tumors = test: Antitumor activity in Endometrial ST040 model; assay type: in vivo, mice
Protocol: (§2) These materials were obtained from and studies were performed at South Texas Accelerated Research Therapeutics, 4383 Medical Drive, San Antonio, Tex. 78229

ST502 TNBC tumors = test: Antitumor activity in Triple Negative Breast Cancer (TNBC) ST502 model; assay type: in vivo, mice
Protocol: as §2

ST738 TNBC tumors = test: Antitumor activity in Triple Negative Breast Cancer (TNBC) ST738 model; assay type: in vivo, mice
Protocol: as §2

ST024 Ovarian tumors = test: Antitumor activity in Ovarian ST024 model; assay type: in vivo, mice
Protocol: as §2

[1] = Phase 1 dose-escalation study: safety, DLT; assay type: in vivo, human
Protocol: Compound I was administered via IV bolus injection.

[2] = EC1456 2 μmol/kg, two times a week for two weeks
[3] = EC1456 4 μmol/kg, once a week for two weeks
[4] = EC1456 1.5 μmol/kg, two times a week for two weeks (BIW×2)
[5] = EC1456 3 μmol/kg, once a week for two weeks (SIW×2)
[6] = EC1456 2 μmol/kg, two times a week for two weeks (BIW×2)
[7] = EC1456 4 μmol/kg, once a week for two weeks (SIW×2)
[8] = DL1 and DL2 (0.5 and 1.0 mg/m^2, BIW), 6 patients
[9] = Eribulin mesylate 1 mg/kg, once a week for two weeks (SIW×2)
[10] = Paclitaxel 15 mg/kg, once a week for two weeks (SIW×2)

For `CC(=O)O[C@@]12CO[C@@H]1C[C@H](O)[C@@]1(C)C(=O)[C@H](O)C3=C(C)[C@@H](OC(=O)[C@H](O)[C@@H](NC(=O)OC(C)(C)C)c4ccccc4)C[C@@](O)([C@@H](OC(=O)c4ccccc4)[C@H]21)C3(C)C` [Docetaxel], the “CR's” value (LU2505 tumors; Docetaxel 15 mg/kg, one dose) was 2, the “PR's” value (LU2505 tumors; Docetaxel 15 mg/kg, one dose) was 2 and the anti-tumor activity (LU2505 tumors; Docetaxel 15 mg/kg, one dose) was “some anti-tumor activity”. The cures (LU2505 tumors; Docetaxel 15 mg/kg, one dose) was 2, the “animals exhibiting stable disease” value (LU1147 tumors; Docetaxel 15 mg/kg, one dose) was 2 animals and the anti-tumor activity (LU1147 tumors; Docetaxel 15 mg/kg, one dose) was “minimal anti-tumor activity”.
In the case of `CCCC(=O)OCN(C(=O)[C@@H](NC(=O)[C@H]1CCCCN1C)C(C)CC)[C@H](C[C@@H](OC(C)=O)c1nc(C(=O)N[C@@H](Cc2ccc(O)cc2)C[C@H](C)C(=O)NNC(=O)OCCSSC[C@@H](NC(=O)[C@H](CCC(=O)NC[C@H](O)[C@@H](O)[C@H](O)[C@H](O)CO)NC(=O)[C@@H](CCC(=O)O)NC(=O)[C@H](CCC(=O)NC[C@H](O)[C@@H](O)[C@H](O)[C@H](O)CO)NC(=O)[C@@H](CCC(=O)O)NC(=O)[C@H](CCC(=O)NC[C@H](O)[C@@H](O)[C@H](O)[C@H](O)CO)NC(=O)CC[C@@H](NC(=O)c2ccc(NCc3cnc4nc(N)[nH]c(=O)c4n3)cc2)C(=O)O)C(=O)O)cs1)C(C)C` (some centres unmarked) [EC1456], the anti-tumor activity (KB-PR10 tumors; 2 μmol/kg) is reported as “no-anti-tumor activity”, the PRs (KB-PR10 tumors; EC1456 1 μmol/kg) is reported as 60% and the antitumor activity (KB-PR10 tumors; EC1456 1 μmol/kg) is reported as “good antitumor activity”. For the same compound, the cures (KB-PR10 tumors; EC1456 1 μmol/kg) was 40%, the cures (LU2505 tumors; [2]) was 7 of 7 and the cures (LU2505 tumors; [3]) was 7 of 7. For the same compound, the “animals exhibiting stable disease” value (LU1147 tumors; [2]) was 5 animals, the “animals exhibiting stable disease” value (LU1147 tumors; [3]) was 6 animals and the anti-tumor activity (large KB tumors) was “excellent anti-tumor activity”. The cures (large KB tumors; 1000 mm^3 tumor group) was 100%, the cures (large KB tumors; 1400 mm^3 tumor group) was 100% and the “animal exhibiting PR” value (ST040 Endometrial tumors; [4]) was 1 animal. The anti-tumor activity (ST040 Endometrial tumors; [4]) was “slightly better anti-tumor activity”, the anti-tumor activity (ST040 Endometrial tumors; [5]) was “slightly better anti-tumor activity” and the “partial response (PR)” value (ST040 Endometrial tumors; [5]) was 1. For the same compound, the anti-tumor activity (ST502 TNBC tumors; [6]) was “no anti-tumor activity”, the anti-tumor activity (ST502 TNBC tumors; [7]) was “no anti-tumor activity” and the “animals exhibiting PR's” value (ST738 TNBC tumors; [6]) was 3 animals. The anti-tumor activity (ST738 TNBC tumors; [6]) was “some anti-tumor activity”, the cure (ST738 TNBC tumors; [6]) was 2 and the “animals exhibiting PR's” value (ST738 TNBC tumors; [7]) was 5 animals. For the same compound, the anti-tumor activity (ST738 TNBC tumors; [7]) was “some anti-tumor activity”, the animals exhibiting cures (ST024 Ovarian tumors; [6]) was 100% and the anti-tumor activity (ST024 Ovarian tumors; [6]) was “curative”. The animals exhibiting cures (ST024 Ovarian tumors; [7]) was 100%, the anti-tumor activity (ST024 Ovarian tumors; [7]) was “curative” and the cure (ST024 Ovarian tumors; [7]) was 5. The “partial response (PR)” value (ST024 Ovarian tumors; [7]) was 2, the “Grade 4 or treatment-related Grade 3 TEAEs” value ([1]; DL1 (0.5 mg/m^2, BIW)) was “No Grade 4 or treatment-related Grade 3 TEAEs were observed” and the “severity of TEAEs (tinnitus, constipation, asthenia, ataxia, dizziness, orthostatic hypotension)” value ([1]; DL1 (0.5 mg/m^2, BIW)) was “mild and self-limited”. For the same compound, the SAE ([1]; DL1 (0.5 mg/m^2, BIW), Grade 3 vomiting in cycle 6, attributed to a viral syndrome) was “one”, the “deaths on treatment or within 30 days of study discontinuation, treatment related SAEs, DLTs” value [1, 8] was “No deaths occurred on treatment or within 30 days of study discontinuation, treatment related serious adverse events (SAEs) or DLTs” and the “dose delays, omissions, or reductions due to toxicity” value [1, 8] was “no dose delays, omissions, or reductions due to toxicity”. The SAEs ([1]; DL2 (1.0 mg/m^2, BIW)) was “no SAEs”, the “severity of TEAEs (abdominal pain, diarrhea, vomiting, hypoglycemia, pain)” value ([1]; DL2 (1.0 mg/m^2, BIW)) was “mild and self-limited” and the “≧Grade 3 TEAEs regardless of relatedness” value ([1]; DL2 (1.0 mg/m^2, BIW)) was “no ≧Grade 3 TEAEs observed”. For the same compound, the “cumulative or late-emerging treatment-related AEs” value ([1]; either dose level (DL1, DL2)) was “no evidence of cumulative or late-emerging treatment-related AEs”.
With `C=C1C[C@@H]2CC[C@@]34C[C@H]5O[C@H]6[C@@H](O3)[C@H]3O[C@H](CC[C@@H]3O[C@H]6[C@H]5O4)CC(=O)C[C@@H]3[C@@H](OC)[C@@H](C[C@H](O)CN)O[C@H]3C[C@H]3O[C@@H](CC[C@@H]1O2)C[C@@H](C)C3=C` [Eribulin mesylate, reference compound] the “animal exhibiting PR” value (ST502 TNBC tumors; [9]) was 1 animal, the anti-tumor activity (ST502 TNBC tumors; [9]) was “minimal anti-tumor activity” and the “PR's” value (ST738 TNBC tumors; [9]) was 2. For the same compound, the anti-tumor activity (ST738 TNBC tumors; [9]) was “some anti-tumor activity”.
For `CC(=O)O[C@H]1C(=O)[C@@]2(C)[C@H]([C@H](OC(=O)c3ccccc3)[C@]3(O)C[C@H](OC(=O)[C@H](O)[C@@H](NC(=O)c4ccccc4)c4ccccc4)C(C)=C1C3(C)C)[C@]1(OC(C)=O)CO[C@@H]1C[C@@H]2O` [Paclitaxel, reference compound], the anti-tumor activity (KB-PR10 tumors; paclitaxel 20 mg/kg) was “little to no anti-tumor activity”, the anti-tumor activity (ST040 Endometrial tumors; [10]) was “minimal anti-tumor activity” and the anti-tumor activity (ST024 Ovarian tumors; [10]) was “no anti-tumor activity”.
